Data taken from patent publication US12492181B2, “Gem-disubstituted piperidine melanocortin subtype-2 receptor (MC2R) antagonists and uses thereof” (Crinetics Pharmaceuticals, Inc., priority 2019, dated 2025).

target: T1, hMC2 receptor (crude hMC2R membranes from CRE-bla-CHO-K1 cells stably expressing hMC2 receptor and hMRAP accessory protein) (Homo sapiens, UniProt Q01718); assay: hMC2 membrane binding assay ([125I]ACTH (1-39) Tyr23, SPA); conditions: displacement of 0.2 nM [125I]ACTH (1-39) Tyr23 from hMC2R membranes, 1.5 hours at room temperature; read-out: MC2R binding potency
T1 construct: crude membrane fractions
T1 sequence (Q01718 whole entry): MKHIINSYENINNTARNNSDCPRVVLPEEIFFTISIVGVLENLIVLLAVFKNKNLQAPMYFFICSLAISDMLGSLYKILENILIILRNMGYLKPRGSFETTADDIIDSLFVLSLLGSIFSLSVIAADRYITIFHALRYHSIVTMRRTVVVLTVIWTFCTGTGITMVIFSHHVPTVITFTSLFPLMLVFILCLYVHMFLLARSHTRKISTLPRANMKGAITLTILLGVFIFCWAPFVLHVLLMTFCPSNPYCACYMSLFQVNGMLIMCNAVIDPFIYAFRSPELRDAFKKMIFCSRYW
T1 sequence (Q8TCY5 whole entry partner): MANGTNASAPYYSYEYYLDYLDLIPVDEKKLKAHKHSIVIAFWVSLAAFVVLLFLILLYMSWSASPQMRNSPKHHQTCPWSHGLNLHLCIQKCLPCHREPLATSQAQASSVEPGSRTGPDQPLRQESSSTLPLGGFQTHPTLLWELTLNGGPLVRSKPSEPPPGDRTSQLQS
Description: Crude membrane fractions are prepared from CRE-bla-CHO-K1 cells stably expressing hMC2 receptor and hMRAP accessory protein (Thermo Fisher). The cells are grown to 85-100% confluence on standard tissue culture dishes in GlutaMax DMEM growth media (Gibco) with following additives: 10% dialyzed FBS (Gemini), 0.1 mM NEAA (Gibco), 25 mM HEPES (Gibco), 5 μg/mL blasticidin (Goldbio), 100 μg/mL zeocin (Invitrogen), 600 μg/mL hygromycin (Goldbio). To prepare membranes, cells are scraped and collected in 1× Dulbecco's phosphate buffered saline (Corning) and then pelleted at 1000 RPM's. The cell pellet is reconstituted in membrane preparation buffer (20 mM HEPES, 6 mM MgCl2 and 1 mM EGTA, protease inhibitor tablets (Pierce) adjusted to pH 7.4), homogenized using a dounce homogenizer, and the resulting membrane fraction is pelleted by centrifugation at 12,000 RPM's. The membrane pellet is resuspended in membrane preparation buffer, snap freezed and stored at −80° C. for later use.
Binding Assay for hMC2 Antagonists Protocol:
The hMC2 membrane binding assay utilizes the following components: radiolabel [^125I]ACTH (1-39) Tyr23 (PerkinElmer), wheatgerm agglutinin coated PVT SPA beads (PerkinElmer), crude hMC2R membranes, and compounds. Briefly hMC2R membranes are incubated with SPA beads in binding assay buffer (50 mM HEPES, 5 mM MgCl2, 1 mM CaCl2), 0.20% BSA, protease inhibitor tablets (Pierce) adjusted to pH7.4) prior to assay initiation. […] Assay plates are read using a Top Count NXT and Ki values for compounds are determined using a GraphPad Prism 6 non-linear regression analysis.

Structure (SMILES)	Ki [nM]
CCOc1ncccc1-c1ccc(C2(C(=O)N[C@H]3CCN(C)C3)CCN(c3ccc(C#N)cc3C(F)(F)F)CC2)cn1 [Compound 1-38, 1-[4-cyano-2-(trifluoromethyl)phenyl]-4-{2′-ethoxy-[2,3′-bipyridin]-5-yl}-N-[(3S)-1-methylpyrrolidin-3-yl]piperidine-4-carboxamide]	< 10
CCOc1ncccc1-c1ccc(C2(C(=O)N[C@@H](C)CN(C)C)CCN(c3ccc(Cl)cc3Cl)CC2)cn1 [Compound 1-318, 1-(2,4-dichlorophenyl)-N-[(2S)-1-(dimethylamino)propan-2-yl]-4-{2′-ethoxy-[2,3′-bipyridin]-5-yl}piperidine-4-carboxamide]	< 10
CCOc1ncccc1-c1ccc(C2(C(=O)N[C@@H](C)CNC)CCN(c3ccc(C(F)(F)F)cc3C#N)CC2)cn1 [Compound 1-314, 1-[2-cyano-4-(trifluoromethyl)phenyl]-4-{2′-ethoxy-[2,3′-bipyridin]-5-yl}-N-[(2S)-1-(methylamino)propan-2-yl]piperidine-4-carboxamide]	< 10
CNC[C@H](C)NC(=O)C1(c2ccc(-c3cccn3C)nc2)CCN(c2ccc(C(F)(F)F)cc2C#N)CC1 [Compound 1-316, 1-[2-cyano-4-(trifluoromethyl)phenyl]-4-[6-(1-methyl-1H-pyrrol-2-yl)pyridin-3-yl]-N-[(2S)-1-(methylamino)propan-2-yl]piperidine-4-carboxamide]	< 10
COc1ncccc1-c1ncc(C2(C(=O)NCCN(C)C)CCN(c3ccc(C(F)(F)F)cc3F)CC2)cc1F [Compound 1-300, N-[2-(dimethylamino)ethyl]-4-{3-fluoro-2′-methoxy-[2,3′-bipyridin]-5-yl}-1-[2-fluoro-4-(trifluoromethyl)phenyl]piperidine-4-carboxamide]	< 10
CCOc1ncccc1-c1ccc(C2(C(=O)NC[C@H](C)N(C)C)CCN(c3ccc(C(F)(F)F)cc3C#N)CC2)cn1 [Compound 1-332, 1-[2-cyano-4-(trifluoromethyl)phenyl]-N-[(2S)-2-(dimethylamino)propyl]-4-{2′-ethoxy-[2,3′-bipyridin]-5-yl}piperidine-4-carboxamide]	< 10
Cn1cccc1-c1ccc(C2(C(=O)N[C@H]3C[C@@H](N(C)C)C3)CCN(c3ccc(C(F)(F)F)cc3C#N)CC2)cn1 [Compound 1-239, 1-[2-cyano-4-(trifluoromethyl)phenyl]-4-[6-(1-methyl-1H-pyrrol-2-yl)pyridin-3-yl]-N-[(1S,3S)-3-(dimethylamino)cyclobutyl]piperidine-4-carboxamide]	10 to 100
COc1ccc(F)cc1-c1ncc(C2(C(=O)N[C@H]3CCN(C)C3)CCN(c3ccc(C(F)(F)F)cc3F)CC2)cc1F [Compound 1-204, 1-[2-fluoro-4-(trifluoromethyl)phenyl]-4-[5-fluoro-6-(5-fluoro-2-methoxyphenyl)pyridin-3-yl]-N-[(3S)-1-methylpyrrolidin-3-yl]piperidine-4-carboxamide]	< 10
CNCCNC(=O)C1(c2ccc(-c3cccnc3OC)nc2)CCN(c2ccc(C(F)(F)F)cc2Cl)CC1 [Compound 1-274, 1-[2-chloro-4-(trifluoromethyl)phenyl]-4-{2′-methoxy-[2,3′-bipyridin]-5-yl}-N-[2-(methylamino)ethyl]piperidine-4-carboxamide]	< 10
CCOc1ccccc1-c1ccc(C2(C(=O)NCCN(C)C)CCN(c3ccc(C(F)(F)F)cc3F)CC2)cn1 [Compound 1-226, N-[2-(dimethylamino)ethyl]-4-[6-(2-ethoxyphenyl)pyridin-3-yl]-1-[2-fluoro-4-(trifluoromethyl)phenyl]piperidine-4-carboxamide]	< 10
CNCCNC(=O)C1(c2ccc(-c3cccnc3OC)nc2)CCN(c2ccc(C(F)(F)F)cc2F)CC1 [Compound 1-272, 1-[2-fluoro-4-(trifluoromethyl)phenyl]-4-{2′-methoxy-[2,3′-bipyridin]-5-yl}-N-[2-(methylamino)ethyl]piperidine-4-carboxamide]	< 10
COc1ccccc1-c1ccc(C2(C(=O)N[C@H]3C[C@H]4CC[C@@H]3N4C)CCN(c3ccc(C(F)(F)F)cc3C#N)CC2)cn1 (racemic) [Compound 1-252, rac-1-[2-cyano-4-(trifluoromethyl)phenyl]-4-[6-(2-methoxyphenyl)pyridin-3-yl]-N-[(1S,2S,4R)-7-methyl-7-azabicyclo[2.2.1]heptan-2-yl]piperidine-4-carboxamide]	10 to 100
COc1c(F)cc(F)cc1-c1ccc(C2(C(=O)N[C@@H]3CCN(C)C3)CCN(c3ccc(C(F)(F)F)cc3C#N)CC2)cn1 [Compound 1-87, 1-[2-cyano-4-(trifluoromethyl)phenyl]-4-[6-(3,5-difluoro-2-methoxyphenyl)pyridin-3-yl]-N-[(3R)-1-methylpyrrolidin-3-yl]piperidine-4-carboxamide]	< 10
CCOc1ccccc1-c1ncc(C2(C(=O)NCCNC)CCN(c3ccc(C(F)(F)F)cc3Cl)CC2)cc1F [Compound 1-292, 1-[2-chloro-4-(trifluoromethyl)phenyl]-4-[6-(2-ethoxyphenyl)-5-fluoropyridin-3-yl]-N-[2-(methylamino)ethyl]piperidine-4-carboxamide]	< 10
CCOc1ncccc1-c1ccc(C2(NC(=O)CCN)CCN(c3ccc(C(F)(F)F)cc3C#N)CC2)cc1 [Compound 2-3, 3-amino-N-{1-[2-cyano-4-(trifluoromethyl)phenyl]-4-[4-(2-ethoxypyridin-3-yl)phenyl]piperidin-4-yl}propanamide]	10 to 100

Continued, values first:

Ki [nM]	Structure (SMILES)
< 10	CN1C[C@H](F)C[C@H]1CNC(=O)C1(c2ccc(-c3cccn3C)nc2)CCN(c2ccc(C(F)(F)F)cc2C#N)CC1 [Compound 1-278, 1-[2-cyano-4-(trifluoromethyl)phenyl]-N-{[(2S,4R)-4-fluoro-1-methylpyrrolidin-2-yl]methyl}-4-[6-(1-methyl-1H-pyrrol-2-yl)pyridin-3-yl]piperidine-4-carboxamide]
< 10	COc1ccccc1-c1ccc(C2(C(=O)NC[C@@H]3C[C@H](F)CN3C)CCN(c3ccc(C(F)(F)F)cc3C#N)CC2)cn1 [Compound 1-249, 1-[2-cyano-4-(trifluoromethyl)phenyl]-N-{[(2S,4S)-4-fluoro-1-methylpyrrolidin-2-yl]methyl}-4-[6-(2-methoxyphenyl)pyridin-3-yl]piperidine-4-carboxamide]
< 10	COc1ccccc1-c1ccc(C2(C(=O)NC[C@@H]3CCN3)CCN(c3ccc(C(F)(F)F)cc3C#N)CC2)cn1 [Compound 1-213, N-{[(2S)-azetidin-2-yl]methyl}-1-[2-cyano-4-(trifluoromethyl)phenyl]-4-[6-(2-methoxyphenyl)pyridin-3-yl]piperidine-4-carboxamide]
< 10	COc1ccccc1-c1ccc(C2(C(=O)NCCN(C)C)CCN(c3ccc(C(F)(F)F)cc3Cl)CC2)cn1 [Compound 1-255, 1-[2-chloro-4-(trifluoromethyl)phenyl]-N-[2-(dimethylamino)ethyl]-4-[6-(2-methoxyphenyl)pyridin-3-yl]piperidine-4-carboxamide]
< 10	CN1CCC[C@@H]1CNC(=O)C1(c2ccc(-c3cccn3C)nc2)CCN(c2ccc(C(F)(F)F)cc2C#N)CC1 [Compound 1-232, 1-[2-cyano-4-(trifluoromethyl)phenyl]-4-[6-(1-methyl-1H-pyrrol-2-yl)pyridin-3-yl]-N-{[(2R)-1-methylpyrrolidin-2-yl]methyl}piperidine-4-carboxamide]
10 to 100	CN1CC[C@H](NC(=O)C2(c3ccc(-c4ccccn4)nc3)CCN(c3ccc(C(F)(F)F)cc3C#N)CC2)C1 [Compound 1-176, 4-{[2,2′-bipyridin]-5-yl}-1-[2-cyano-4-(trifluoromethyl)phenyl]-N-[(3S)-1-methylpyrrolidin-3-yl]piperidine-4-carboxamide]
< 10	CN1CC[C@@H](NC(=O)C2(c3ccc(-c4cc(F)ccc4F)nc3)CCN(c3ccc(C(F)(F)F)cc3C#N)CC2)C1 [Compound 1-68, 1-[2-cyano-4-(trifluoromethyl)phenyl]-4-[6-(2,5-difluorophenyl)pyridin-3-yl]-N-[(3R)-1-methylpyrrolidin-3-yl]piperidine-4-carboxamide]
< 10	CCOc1ccccc1-c1ccc(C2(C(=O)NCCNC)CCN(c3ccc(C(F)(F)F)cc3F)CC2)cn1 [Compound 1-227, 4-[6-(2-ethoxyphenyl)pyridin-3-yl]-1-[2-fluoro-4-(trifluoromethyl)phenyl]-N-[2-(methylamino)ethyl]piperidine-4-carboxamide]
< 10	COc1sccc1-c1ccc(C2(C(=O)N[C@H]3CCN(C)C3)CCN(c3ccc(C(F)(F)F)cc3C#N)CC2)cn1 [Compound 1-119, 1-[2-cyano-4-(trifluoromethyl)phenyl]-4-[6-(2-methoxythiophen-3-yl)pyridin-3-yl]-N-[(3S)-1-methylpyrrolidin-3-yl]piperidine-4-carboxamide]
